# Experiments:
# Assay in all cases: relative viability (nuclei count vs DMSO), 5 days (fraction); higher = more cells survive
# Dasatinib + Olaparib = compound: Cc1nc(Nc2ncc(C(=O)Nc3c(C)cccc3Cl)s2)cc(N2CCN(CCO)CC2)n1 [Dasatinib] + O=C(c1cc(Cc2n[nH]c(=O)c3ccccc23)ccc1F)N1CCN(C(=O)C2CC2)CC1 [Olaparib] (partner 8 µM)
# How it was run: (§1)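 Lung cancer cell lines, seeded in 1536-well plates, were treated the following day by pin tool with a single drug or with five library-drug doses (not always all listed) in √10 steps on top of a fixed anchor-drug dose. Cells were fixed and nuclei stained in one step after 5 days, and nuclei were counted. Relative viability is the nuclei count for treated wells divided by that for vehicle wells, reported as medians of duplicate plates.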
# ALW-II-49-7 + Pemetrexed = compound: Cc1ccc(C(=O)Nc2cccc(C(F)(F)F)c2)cc1Nc1cncc(C(N)=O)c1 [ALW-II-49-7] + Nc1nc2[nH]cc(CCc3ccc(C(=O)N[C@@H](CCC(=O)O)C(=O)O)cc3)c2c(=O)[nH]1 [Pemetrexed] (partner 0.2 µM)
# How it was run: as §1
# ALW-II-49-7 + Lapatinib = compound: Cc1ccc(C(=O)Nc2cccc(C(F)(F)F)c2)cc1Nc1cncc(C(N)=O)c1 [ALW-II-49-7] + CS(=O)(=O)CCNCc1ccc(-c2ccc3ncnc(Nc4ccc(OCc5cccc(F)c5)c(Cl)c4)c3c2)o1 [Lapatinib] (partner 2 µM)
# How it was run: as §1
# XMD13-2 + Alpelisib = compound: C1CC1C(=O)NC2=NNC3=C2C=CC(=C3)C4=CC(=CC=C4)C(=O)NC5CC5 [XMD13-2] + Cc1nc(NC(=O)N2CCC[C@H]2C(N)=O)sc1-c1ccnc(C(C)(C)C(F)(F)F)c1 [Alpelisib] (partner 2 µM)
# How it was run: as §1
Cell Line,relative viability (Dasatinib + Olaparib; first compound 0.005 µM),relative viability (Dasatinib + Olaparib; first compound 0.01581 µM),relative viability (Dasatinib + Olaparib; first compound 0.05 µM),relative viability (Dasatinib + Olaparib; first compound 0.1581 µM),relative viability (Dasatinib + Olaparib; first compound 0.5 µM),relative viability (ALW-II-49-7 + Pemetrexed; first compound 0.08 µM),relative viability (ALW-II-49-7 + Pemetrexed; first compound 0.253 µM),relative viability (ALW-II-49-7 + Pemetrexed; first compound 0.8 µM),relative viability (ALW-II-49-7 + Pemetrexed; first compound 2.53 µM),relative viability (ALW-II-49-7 + Pemetrexed; first compound 8 µM),relative viability (ALW-II-49-7 + Lapatinib; first compound 0.08 µM),relative viability (ALW-II-49-7 + Lapatinib; first compound 0.253 µM),relative viability (ALW-II-49-7 + Lapatinib; first compound 0.8 µM),relative viability (ALW-II-49-7 + Lapatinib; first compound 2.53 µM),relative viability (ALW-II-49-7 + Lapatinib; first compound 8 µM),relative viability (XMD13-2 + Alpelisib; first compound 0.05 µM),relative viability (XMD13-2 + Alpelisib; first compound 0.1581 µM),relative viability (XMD13-2 + Alpelisib; first compound 0.5 µM),relative viability (XMD13-2 + Alpelisib; first compound 1.581 µM),relative viability (XMD13-2 + Alpelisib; first compound 5 µM)
201T,0.783,0.753,0.707,0.636,0.445,0.321,0.365,0.287,0.346,0.381,1.08,1.1,1.05,1.03,0.903,1.07,1.03,0.945,1,1.07
A549,0.312,0.306,0.269,0.308,0.116,,,,,,0.958,1.03,1.01,1.05,0.978,1.05,0.709,0.812,0.714,0.952
A-427,0.704,0.646,0.637,0.574,0.563,0.982,1.11,0.926,1.02,1.06,0.988,1.13,1.06,1.07,0.969,1.19,1.05,1.02,0.949,0.965
ABC-1,0.867,0.767,0.786,0.621,0.841,,,,,,1.31,1.07,1.1,0.311,0.999,1.29,1.15,0.893,0.928,0.998
BEN,0.755,0.641,0.724,0.549,0.456,0.8,0.88,0.757,0.902,0.81,0.721,0.814,0.649,,0.629,1.29,1.03,1,1.03,1.11
CAL-12T,0.689,0.688,0.877,0.755,0.575,1.16,1.3,1.27,1.25,0.749,0.641,,,0.568,0.697,1.31,1.18,1.24,1.11,1.4
COR-L23,0.338,0.294,0.325,0.208,0.211,0.198,0.208,0.206,0.204,0.177,0.919,0.656,1.16,1.01,1.08,0.931,0.77,0.951,0.741,0.805
COR-L 105,0.517,0.494,0.617,0.452,0.336,1.16,1.06,1.21,0.959,0.974,0.318,0.372,0.335,0.359,0.416,1.06,1.36,0.984,0.964,0.945
Calu-6,0.57,0.434,0.449,0.357,0.34,,,,,,0.896,1.08,1.02,1.59,1.02,1.02,0.948,1.04,0.923,0.757
ChaGo-K-1,0.424,0.404,0.426,0.393,0.325,0.266,0.274,0.263,0.268,0.262,,,,,,,,,,
EBC-1,0.803,0.619,0.612,0.613,0.602,,,,,,0.197,0.186,0.15,0.231,0.162,0.999,0.801,0.907,0.738,0.483
EKVX,0.852,0.669,0.676,0.338,0.189,0.396,0.323,0.405,0.336,0.414,0.194,0.188,0.173,0.127,0.188,1.12,0.882,0.92,0.931,0.937
EMC-BAC-2,0.462,0.404,0.447,0.355,0.301,0.448,0.455,0.409,0.456,0.403,0.829,0.812,0.888,0.937,0.814,0.844,0.748,0.752,0.703,0.57
EPLC-272H,0.793,0.681,0.697,0.33,0.208,0.315,0.382,0.289,0.34,0.206,0.666,0.916,1.07,1.08,0.782,1.03,0.856,1.07,0.759,0.463
H3255,0.551,0.604,0.563,0.476,0.341,0.623,0.579,0.576,0.566,0.489,0.27,0.363,0.266,0.225,0.212,0.858,0.597,0.658,0.729,0.624
HARA,0.822,0.625,0.517,0.186,0.188,0.235,0.288,0.247,0.277,0.218,0.675,0.689,0.87,0.964,0.866,0.923,0.795,0.943,0.808,0.988
HCC-15,0.763,0.764,0.851,0.733,0.689,0.214,0.227,0.228,0.227,0.241,0.811,0.818,0.793,0.815,0.764,0.91,0.811,0.911,0.878,0.619
HCC-44,1.03,0.958,1.11,1.13,0.986,0.683,0.662,0.617,0.664,0.673,0.967,1.04,0.995,0.973,0.923,0.995,0.843,0.934,0.82,0.745
HCC-78,0.596,0.649,0.639,0.577,0.243,0.888,0.846,0.91,0.884,0.891,0.779,0.957,0.993,0.878,0.623,0.392,0.338,0.327,0.304,0.352

Cell Line,relative viability (Dasatinib + Olaparib; first compound 0.005 µM),relative viability (Dasatinib + Olaparib; first compound 0.01581 µM),relative viability (Dasatinib + Olaparib; first compound 0.05 µM),relative viability (Dasatinib + Olaparib; first compound 0.1581 µM),relative viability (Dasatinib + Olaparib; first compound 0.5 µM),relative viability (ALW-II-49-7 + Pemetrexed; first compound 0.08 µM),relative viability (ALW-II-49-7 + Pemetrexed; first compound 0.253 µM),relative viability (ALW-II-49-7 + Pemetrexed; first compound 0.8 µM),relative viability (ALW-II-49-7 + Pemetrexed; first compound 2.53 µM),relative viability (ALW-II-49-7 + Pemetrexed; first compound 8 µM),relative viability (ALW-II-49-7 + Lapatinib; first compound 0.08 µM),relative viability (ALW-II-49-7 + Lapatinib; first compound 0.253 µM),relative viability (ALW-II-49-7 + Lapatinib; first compound 0.8 µM),relative viability (ALW-II-49-7 + Lapatinib; first compound 2.53 µM),relative viability (ALW-II-49-7 + Lapatinib; first compound 8 µM),relative viability (XMD13-2 + Alpelisib; first compound 0.05 µM),relative viability (XMD13-2 + Alpelisib; first compound 0.1581 µM),relative viability (XMD13-2 + Alpelisib; first compound 0.5 µM),relative viability (XMD13-2 + Alpelisib; first compound 1.581 µM),relative viability (XMD13-2 + Alpelisib; first compound 5 µM)
HCC-366,0.263,0.206,0.217,0.157,0.141,0.195,0.188,0.155,0.195,0.131,1.21,1.32,1,1.09,1.13,0.61,0.31,0.334,0.446,0.443
HCC-827,0.595,0.577,0.535,0.209,0.106,0.275,0.259,0.173,0.176,0.25,0.17,0.237,0.189,0.178,0.175,1.01,0.917,1.01,0.947,0.528
HOP-62,0.32,0.381,0.307,0.434,0.204,0.313,0.35,0.322,0.307,0.243,1.17,1.24,1.1,0.806,0.639,0.848,0.516,1.03,1,0.664
IA-LM,1.06,0.537,0.904,0.706,0.6,,,,,,0.83,0.906,0.645,0.152,0.169,0.86,0.962,0.766,0.767,0.901
LC-2-ad,0.752,0.666,0.746,0.573,0.516,0.249,0.258,0.273,0.229,0.267,0.812,0.96,0.932,0.947,0.753,0.983,0.887,0.939,0.938,0.79
LCLC-97TM1,0.468,0.449,0.557,0.393,0.4,0.147,0.161,0.176,0.16,0.148,1.03,1.06,1.06,0.842,1.01,0.214,0.262,0.225,0.206,0.146
LCLC-103H,0.74,0.716,0.718,0.508,0.356,0.533,0.502,0.477,0.462,0.419,,,,,,0.91,0.979,0.981,0.959,0.851
LK-2,0.674,0.609,0.57,0.278,0.229,0.244,0.282,0.316,,0.201,1.01,0.778,0.919,0.567,0.825,1.33,0.998,0.98,1.04,1.02
NCI-H441,0.532,0.529,0.519,0.387,0.309,0.27,0.25,0.26,0.234,0.211,,,,,,0.675,1.15,0.649,0.801,0.547
NCI-H522,0.707,0.513,0.591,0.52,0.549,0.909,0.874,0.958,1.07,1.01,,,,,,,,,,
NCI-H727,0.74,0.603,0.654,0.618,0.288,,,,,,0.984,1.08,0.872,0.965,0.871,0.549,0.423,0.527,0.51,0.55
NCI-H1299,0.959,0.983,0.998,0.639,0.297,,,,,,0.986,1.06,0.916,0.839,0.763,1.08,1.08,1.09,1.08,1.09
NCI-H1563,,,,,,0.73,0.732,0.718,0.811,0.713,1.07,0.92,1.16,0.837,0.897,1.02,1,0.941,0.894,0.985
NCI-H1648,0.73,0.612,0.855,0.314,0.221,0.579,0.934,0.802,0.52,0.738,,,,,,,,,,
NCI-H1650,0.741,0.614,0.571,0.442,0.282,0.352,0.379,0.383,0.378,0.406,0.955,0.846,0.854,1.04,0.753,,,,,
NCI-H1703,0.287,0.25,0.144,0.147,0.148,,,,,,1.17,1.14,0.906,0.448,0.363,0.356,0.405,0.292,0.279,0.406
NCI-H2342,0.564,0.397,0.364,0.274,0.285,0.681,0.856,0.771,0.791,0.744,,,,,,,,,,
SW 900,0.65,0.436,0.395,0.324,0.336,0.449,0.492,,0.517,0.316,,,,,,,,,,
